According to patent US12636368B2, “Ionizable lipids for nucleic acid delivery” (Global Life Sciences Solutions Canada ULC, priority 2019, dated 2026):

Tests used:
[1] = tested on: isolated primary human T cells; experiment: GFP mRNA-LNP transfection of primary human T cells, flow cytometry; assay type: cell-based; details: for amount of protein produced (MFI) in human T cells compared with MC3: summary; for protein expression (GFP MFI) compared with MC3: FIG. 5, CT10, N/P 8, 500 ng mRNA per 125,000 cells, 3 days after activation, 48 h
Procedure: Reagents were from Stemcell Technologies unless otherwise stated. Tcells were isolated from a single donor. At 48 h following lipid particle mRNA exposure, the treated T cells were harvested by transferring the cell suspensions to pre-labeled 1.5 mL tubes and centrifuged 300×g at 4 degrees C. for 10 minutes. Supernatant was removed and the pellet resuspended in PBS. An amount of 0.5 ul of BD Horizon™ Fixable Viability Stain 575V™ (BD Biosciences), was added, and the mixture incubated in the dark for 10 minutes at RT. This stain binds to amines.
The cells were centrifuged again as before, then washed twice with 1 mL of stain buffer (BSA, BD Pharminigen), and the washed pellet was diluted in 100 μl BSA. The following antibodies were added to each tube of treated cells in 2 μl volumes: CD25, CD8, CD4, (PerCP-Cy™ 5.5 Mouse Anti Human CD25, BV786 Mouse Anti-Human CD8 Clone RPA-T8, APC-Cy™7 Mouse Anti-Human CD4 Clone SK3 (all from BD Pharmingen) with the exception of the controls: in the eGFP only sample and viability control, no antibody was added. In the single stain compensation tubes, only one antibody per tube was added.
The tubes were incubated at 4 degrees C. for 30 min, whereupon […] of stain buffer was added, and the cells were centrifuged again. Cells were washed once with 1 mL of stain buffer and spun down again as in step one. Cell pellets were resuspended in 1 mL of stain buffer and added to pre-labeled flow tubes with cell strainer caps (Corning Falcon). […]
GFP MFI was measured by flow cytometry 48 hours after LNP addition. T cells were isolated from whole blood using a negative isolation procedure (EasySep™ Human T Cell Isolation Kit, Stemcell Technologies). T cells were dosed with mRNA-LNPs 3 days after activation with 500 ng of encapsulated mRNA per 125,000 cells. The LNP were CT10 compositions with an N/P of 8. Transfection efficiency (upper graph) and MFI (lower graph) were measured by flow cytometry 48 h after LNP addition.

C56BL/6 mice = experiment: hEPO expression in mice after i.v. EPO mRNA LNPs; assay type: in vivo; details: for protein expression in vivo compared with MC3: summary, Table 7 and Figures; for hEPO protein level compared with MC3: FIG. 9, 5-moU EPO mRNA, LM02, N/P 6, 0.5 mg/Kg, 6 h
Procedure: C56BL/6 mice were administered i.v doses of 0.5, 1 or 3 mg/Kg of recombinant human EPO-encoded mRNA LNPs containing ionizable lipids MC3, PNI 76, PNI 121 and PNI 127 using the LM02 composition at N/P 6; hEPO protein was measured using Quantikine® IVD® ELISA Human Erythropoietin Immunoassay protocol. Results for the 0.5 mg/Kg dosage are shown in the scatter plot of FIG. 7. Results for the 1 and 3 mg/Kg doses are shown in FIG. 8 as scatter plots of hEPO expression levels at 6 h (left) and 24 h (right).
In another study, 5-moU EPO mRNA encapsulated in LM02 LNP at an N/P ratio of 6 and a dose of 0.5 mg/Kg comprising a variety of […] ionizable lipids (PNI 336, PNI 534, PNI 535, PNI 342, PNI 321, PNI 532, PNI 538, PNI 541, PNI 325, PNI 328, PNI 329, PNI 539, PNI 540, PNI 127); along with MC3 as a control, were administered. hEPO protein was measured using ProteinSimple® Ella platform, and the rhEPO microfluidic cartridges provided by the manufacturer.
Blood from mice treated with hEPO mRNA LNP was analyzed using an automated ELISA platform “ELLA”, using Simplex™ antibody panel cartridges. Human-specific EPO and mouse-specific IL-5, IL-6, TNF-α, and IFN-γ were measured (reagents from Bio-techne). Briefly, 50 μL of sample reagent (diluted biological sample, quality control, or calibration point sample) were aliquoted into each sample inlet, and 1 mL of wash buffer was added into corresponding inlets on the cartridge. All immunoassay operations (including prime system, flow samples and split them into channels, sample incubation, wash, rehydrate and flow secondary antibody, wash, rehydrate and flow streptavidin dye conjugate, incubate, wash, scan) were processed automatically. Raw signal levels (relative fluorescence units, RFUs), mean signal values, standard deviation, and coefficient of variance (CV) for each glass nanoReactor (GNR) value are provided. RFU values are automatically backfit by the ELLA to produce an analyte concentration per analyte/sample using the manufacturer given calibration methodology.
Reagents were acquired from Quantikine, Minneapolis, MN. The assay was performed as directed on the Quantikine® IVD® ELISA Human Erythropoietin Immunoassay protocol REF DEP00 Package Insert. Briefly; Sera samples of 6 h, and/or 24 h post intravenous administration of 0.5, 1 or 3 mg/kg dose of EPO-encoded mRNA were analyzed for EPO expression analysis, and expressed as mIU/mL. To an EPO antibody pre-coated 96-well microplate, provided by the manufacturer, standards, appropriately diluted sera, and the Horseradish peroxidase (HRP)-conjugated rabbit anti-EPO polyclonal antibody and TMB (Tetramethylbenzidine) as the substrate were added and incubated for 20 minutes. Stop solution (Sulfuric Acid) was added to the wells and the plate was read at 450 nm and the concentration of EPO was calculated. The amount of colour generated is directly proportional to the amount of the conjugate bound to EPO antibody, which in turn is directly proportional to the amount of EPO in the specimen or standard. A standard curve was generated by plotting absorbance versus concentration of provided standards. Quantikine® Human Serum Controls (CEP 01, CEP 03) were used for internal controls.

[2] = LNP size and PDI by dynamic light scattering; assay type: physicochemical
Procedure, shortened: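 Hydrodynamic diameter measured by DLS with a 633 nm He/Ne laser in backscatter mode (173°), averaging 10 runs of two cycles per sample. Size reported as Z-average (harmonic intensity-averaged diameter), with polydispersity given as PDI.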

[3] = Table 6, GFP-encoded LNPs, CT10, N/P 8
[4] = Table 7, EPO mRNA LNPs, LM02, N/P 6

Diameter (Z. ave, nm) [2, 3] [nm] | Polydispersity Index (PDI) [2, 3] | Diameter (Z. ave, nm) [2, 4] [nm] | Polydispersity Index (PDI) [2, 4] | SMILES | transfection efficiency compared with MC3 ([1]; FIG. 1, eGFP mRNA LNP, CT10, N/P 10, 48 hours after treatment) | transfection efficiency compared with MC3 in various donors ([1]; FIG. 2, six donors, treated 7 days post activation, 48 hours) | viability of T cells compared to untreated cells ([1]; six-donor experiment, not shown) | amount of protein produced (MFI) in human T cells compared with MC3 [1] | protein expression in vivo compared with MC3 (C56BL/6 mice) | protein expression (GFP MFI) compared with MC3 [1] | hEPO protein level compared with MC3 (C56BL/6 mice) | amount of protein produced (MFIs) compared with MC3 [1]
100.7 | 0.16 | 93.5 | 0.10 | CCCCC/C=C\C/C=C\CCCCCCCC(=O)O[C@@H]1[C@@H](OC(=O)CCCCCCC/C=C\C/C=C\CCCCC)CO[C@@H]1COC(=O)CCCN(C)C (racemic) [PNI 121] | greater than MC3 | greater than those containing clinically validated MC3 | unaffected | better than MC3 | equivalent to MC3 | – | – | –
92.6 | 0.16 | 66.9 | 0.02 | CCCCC/C=C\C/C=C\CCCCCCCC(=O)O[C@@H]1[C@@H](OC(=O)CCCCCCC/C=C\C/C=C\CCCCC)CO[C@@H]1COC(=O)C1CCN(C)C1 (mixture of isomers) [PNI 328] | – | – | – | better than MC3 | equivalent to MC3 | higher levels of protein expression than MC3 | compare well to MC3 | –
74.1 | 0.11 | 70.9 | 0.04 | CCCCC/C=C\C/C=C\CCCCCCCC(=O)O[C@@H]1[C@@H](OC(=O)CCCCCCC/C=C\C/C=C\CCCCC)CO[C@@H]1COC(=O)C1(C)CCN(C)C1 (mixture of isomers) [PNI 329] | – | – | – | better than MC3 | equivalent to MC3 | higher levels of protein expression than MC3 | compare well to MC3 | better than MC3
– | – | 86.9 | 0.13 | CCCCC/C=C\C/C=C\CCCCCCCC(=O)O[C@@H]1[C@@H](OC(=O)CCCCCCC/C=C\C/C=C\CCCCC)CO[C@@H]1COC(=O)CCCN1CCCC1 (racemic) [PNI 539] | – | – | – | – | – | – | compare well to MC3 | –
